Measurements published in publication PMC10886425, “Antibacterial Activity and Cytotoxicity Screening of Acyldepsipeptide-1 Analogues Conjugated to Silver/Indium/Sulphide Quantum Dots” (Antibiotics, 2024).
≈ marks a conversion by molar mass, not a printed value. Like-named read-outs stand apart in the source and are kept apart here.

Key:
[1] = system: Escherichia coli ATCC 33,876; test: Broth microdilution susceptibility assay (MIC) with plating on agar (MBC); assay type: cell-based; details: ATCC33, E. coli, overnight 37 °C, conjugate concentration as loaded ADEP1 analogue
Source text: (§1) ADEP1 analogues (SC005-8) were synthesized in-house, as described by Cobongela et al., [11]. 1-Ethyl-3-(3-dimethylaminopropyl) carbodiimide (EDC), […] (sulfo-NHS), dimethyl sulfoxide (DMSO), thioglycolic acid (TGA), silver nitrate (AgNO3), sodium sulfide (Na2S·xH2O), gelatin, Dulbecco’s Modified Eagle Medium (DMEM), phosphate, trypsin, penicillin-streptomycin, fetal bovine serum (FBS), 3-(4,5-dimethylthiazol-2-yl)-5-(3-carboxymethoxyphenyl)-2-(4-sulfophenyl)-2H-tetrazolium (MTS dye), and trypan blue stain dye were all purchased from Sigma (St Louis, MO, USA). Bacillus subtilis American Type Culture Collection (ATCC) 11774, Staphylococcus aureus ATCC 25,923 and Methicillin-resistant Staphylococcus aureus (MRSA) ATCC 43300, and two Gram-negative (Escherichia coli ATCC 33,876 and Pseudomonas aeruginosa ATCC 15,442 were purchased from ATCC (Manassas, VA, USA). Human embryonic kidney 293 (HEK-293) cells were purchased from Cellonex (Randburg, Gauteng Province, South Africa).
(§2) The MIC and MBC of the AgInS2-ADEP1 analogue conjugates against B. subtilis, S. aureus, MRSA, P. aeruginosa and E. coli was determined using the broth microdilution susceptibility assay, following a previously described protocol. Briefly, overnight-grown bacterial cultures were adjusted to approximately 1.5 × 10^8 CFU/mL in a sterile Luria–Bertani broth. The concentration of ADEP1 on AgInS2-ADEP1 analogue conjugates was calculated based on the ADEP1 analogues calibration curve. AgInS2-ADEP1 analogue conjugates and ADEP1 analogues were diluted via 2-fold serial dilution with broth containing a final concentration range of 0.8–100 µM and 15.6–2000 µM, respectively. Gentamicin (concentration range between 0.007 and 6.7 mM) was used as a positive control for B. subtilis, S. aureus, MRSA, and P. aeruginosa, while ampicillin (concentration range between 0.18 and 6.7 mM) was used as a positive control for E. coli, and 5% DMSO was used as a negative control. The 96-well plates were then incubated overnight at 37 °C. […] The MBC was determined as the lowest concentration resulting in complete […].

[2] = system: Bacillus subtilis ATCC 11774; test: as above; assay type: cell-based; details: ATCC11774, B. subtilis, overnight 37 °C, conjugate concentration as loaded ADEP1 analogue
Source text: as §1, §2

[3] = system: Methicillin-resistant Staphylococcus aureus (MRSA) ATCC 43300; test: as above; assay type: cell-based; details: overnight 37 °C, conjugate concentration as loaded ADEP1 analogue
Source text: as §1, §2

[4] = system: Pseudomonas aeruginosa ATCC 15,442; test: as above; assay type: cell-based; details: ATCC15, P. aeruginosa, overnight 37 °C, conjugate concentration as loaded ADEP1 analogue
Source text: as §1, §2

[5] = system: Staphylococcus aureus ATCC 25,923; test: as above; assay type: cell-based; details: ATCC25, S. aureus, overnight 37 °C, conjugate concentration as loaded ADEP1 analogue
Source text: as §1, §2

[6] = Zeta potential (zetasizer); assay type: physicochemical; details: Malvern zetasizer; for Zeta Potential after Conjugation: after conjugation to gelatin-capped AgInS2 QDs; for Zeta Potential before Conjugation: unconjugated ADEP1 analogue or AgInS2 QDs alone
Procedure: (§3) A Spectro Xepos-05 energy-dispersive X-ray fluorescence (ED-XRF, Rigaku, TX, USA) instrument was used to determine the Ag, In, and S concentrations in the gelatin-capped AgInS2 QD powder. The core sizes of AgInS2 QDs and AgInS2-ADEP1 analogue conjugates were analyzed by the high-resolution transmission electron microscope (HR-TEM, JEOL, Tokyo, Japan). Fourier transform infrared spectroscopy (FTIR) spectra were recorded using a Perkin Elmer Spectrum Two UATR-FTIR spectrometer (PerkinElmer, Buckinghamshire, UK). The Hitachi F-2700FL spectrofluorophotometer (Hitachi, Tokyo, Japan) was used for the fluorescence measurements. Malvern system 4700 zetasizer (Malvern, Great Malvern, UK) together with a dynamic light scattering (DLS) technique were used to determine the zeta potential and particle hydrodynamic size of the AgInS2 QDs and AgInS2-ADEP1 analogue conjugates using.

[7] = Hydrodynamic size by dynamic light scattering (DLS); assay type: physicochemical; details: AgInS2 QDs alone or after conjugation with the named ADEP1 analogue
Procedure: as §3

[8] = system: Bacillus subtilis ATCC 11774; details: B. subtilis; free ADEP1 analogues; cited from earlier work
Source text: Table 4 MIC and MBC values of the AgInS2 QD-ADEP1 analogue conjugates and ADEP1 analogues. | column: B. subtilis / MIC µM; B. subtilis / MBC µM

[9] = system: Staphylococcus aureus ATCC 25,923; details: S. aureus; free ADEP1 analogues; cited from earlier work
Source text: Table 4 MIC and MBC values of the AgInS2 QD-ADEP1 analogue conjugates and ADEP1 analogues. | column: S. aureus / MIC µM; S. aureus / MBC µM

[10] = system: Methicillin-resistant Staphylococcus aureus (MRSA) ATCC 43300; details: free ADEP1 analogues; cited from earlier work
Source text: Table 4 MIC and MBC values of the AgInS2 QD-ADEP1 analogue conjugates and ADEP1 analogues. | column: MRSA / MIC µM; MRSA / MBC µM

[11] = system: Pseudomonas aeruginosa ATCC 15,442; details: P. aeruginosa; free ADEP1 analogues; cited from earlier work
Source text: Table 4 MIC and MBC values of the AgInS2 QD-ADEP1 analogue conjugates and ADEP1 analogues. | column: P. aeruginosa / MIC µM; P. aeruginosa / MBC µM

[12] = system: Escherichia coli ATCC 33,876; details: E. coli; free ADEP1 analogues; cited from earlier work
Source text: Table 4 MIC and MBC values of the AgInS2 QD-ADEP1 analogue conjugates and ADEP1 analogues. | column: E. coli / MIC µM; E. coli / MBC µM

[13] = Luria-Bertani broth, ~1.5 × 10^8 CFU/mL
[14] = MIC wells plated on Luria-Bertani agar

Row | Compound | Zeta Potential after Conjugation [6] | Zeta Potential before Conjugation [6] | Hydrodynamic Diameter [7] | MBC [8] | MIC [8] | MBC [9] | MIC [9] | MBC [10] | MIC [10] | MBC [11] | MIC [11] | MBC [12] | MIC [12] | also measured
1 | CC1(C)S[C@@H]2[C@H](NC(=O)[C@H](N)c3ccccc3)C(=O)N2[C@H]1C(=O)O [Ampicillin] | – | – | – | – | – | – | – | – | – | – | – | – | – | MIC [1, 13]: 2860 µM (≈ 1000 µg/mL); MBC [1, 14]: 5720 µM (≈ 2000 µg/mL)
2 | CNC(C)C1CCC(N)C(OC2C(N)CC(N)C(OC3OCC(C)(O)C(NC)C3O)C2O)O1 (centres unmarked) [Gentamicin] | – | – | – | – | – | – | – | – | – | – | – | – | – | MIC ([2]; Luria-Bertani broth, ~1.5 × 10^8 CFU/mL, no visible growth): 26.1 µM (≈ 12.5 µg/mL); MBC [2, 14]: 52.3 µM (≈ 25 µg/mL); MIC [3, 13]: 26.2 µM (≈ 12.5 µg/mL); MBC [3, 14]: 52.4 µM (≈ 25 µg/mL); MIC [4, 13]: 419 µM (≈ 200 µg/mL); MBC [4, 14]: 838 µM (≈ 400 µg/mL); MIC [5, 13]: 0.5 µM (≈ 0.239 µg/mL); MBC [5, 14]: 1 µM (≈ 0.478 µg/mL)
3 | Adamantane-FCPAAPC; D-form amino acids (disulfide) [SC006, Disulphide bond cyclized ADEP1 analogue, Adamantane-FCPAAPC, D-form amino acids] | 1.38 ± 0.06 mV | −3.8 ± 1.1 mV | 44.2 ± 1.4 nm | 250 µM | 250 µM | 125 µM | 63 µM | 250 µM | 250 µM | 250 µM | 125 µM | 750 µM | 500 µM | –
4 | Adamantane-FCPAAPC; L-form amino acids (disulfide) [SC007, Disulphide bond cyclized ADEP1 analogue, Adamantane-FCPAAPC, L-form amino acids] | 1.00 ± 0.15 mV | −3.9 ± 0.8 mV | 44.4 ± 0.7 nm | 125 µM | 125 µM | 125 µM | 63 µM | 500 µM | 250 µM | 250 µM | 125 µM | 750 µM | 500 µM | –
5 | Palmitic acid-FCPAAPC; D-form amino acids (disulfide) [SC005, Disulphide bond cyclized ADEP1 analogue, Palmitic acid-FCPAAPC, D-form amino acids] | 1.46 ± 0.02 mV | −7.2 ± 1.6 mV | 49.6 ± 1.6 nm | 125 µM | 125 µM | 125 µM | 63 µM | 250 µM | 125 µM | 250 µM | 125 µM | 750 µM | 500 µM | –
6 | Palmitic acid-FCPAAPC; L-form amino acids (disulfide) [SC008, Disulphide bond cyclized ADEP1 analogue, Palmitic acid-FCPAAPC, L-form amino acids] | 1.39 ± 0.09 mV | −6.9 ± 1.5 mV | 50.3 ± 1.6 nm | 125 µM | 125 µM | 125 µM | 63 µM | 500 µM | 250 µM | 250 µM | 125 µM | 750 µM | 500 µM | –
